The values that follow are results of earlier work, collected in patent US20130217673A1, “MIXED MONOAMINE REUPTAKE INHIBITOR IN A BIODEGRADABLE POLYMER CARRIER” (Warsaw Orthopedic, Inc, priority 2012, published 2013).

SMILES strings stand for the structures.

The test system of the data set is nociception. Particulars: compared with bupivacaine.

Turning to `CN(C)CCC=C1c2ccccc2CCc2ccccc21` [amitryptyline, 3-(10,11-dihydro-5H-dibenzo[a,d]cycloheptene-5-ylidene)-N,N-dimethylpropan-1-amine], the “duration of the effect in blocking nociception” value is listed as “the effects last longer” and the “potency in blocking nociception relative to bupivacaine” value is on record as “at least three times more potent than bupivacaine”.

As for `CN(C)CCC=C1c2ccccc2COc2ccccc21` [doxepin], the “duration of the effect in blocking nociception” value is “the effects last longer” and the “potency in blocking nociception relative to bupivacaine” value is listed as “at least three times more potent than bupivacaine”.
